In publication PMC10507085, “Pharmacological inhibition of TBK1/IKKε blunts immunopathology in a murine model of SARS-CoV-2 infection” (Nature Communications, 2023):

Columns and labels:
Assay in all cases: biochemical
Design in all cases: KINOMEscan competition binding, DNA-tagged kinase against immobilised ligand, qPCR read-out
Conditions in all cases: read-out: Percent Control
ABL1-nonphosphorylated = target: T1, ABL1-nonphosphorylated (Homo sapiens, UniProt P00519)
T1 construct: nonphosphorylated

AKT1 = AKT1 (Homo sapiens, UniProt P31749)
ALK = ALK (Homo sapiens, UniProt Q9UM73)
CSK = CSK (Homo sapiens, UniProt P41240)
Chain of CSK (P41240 whole entry): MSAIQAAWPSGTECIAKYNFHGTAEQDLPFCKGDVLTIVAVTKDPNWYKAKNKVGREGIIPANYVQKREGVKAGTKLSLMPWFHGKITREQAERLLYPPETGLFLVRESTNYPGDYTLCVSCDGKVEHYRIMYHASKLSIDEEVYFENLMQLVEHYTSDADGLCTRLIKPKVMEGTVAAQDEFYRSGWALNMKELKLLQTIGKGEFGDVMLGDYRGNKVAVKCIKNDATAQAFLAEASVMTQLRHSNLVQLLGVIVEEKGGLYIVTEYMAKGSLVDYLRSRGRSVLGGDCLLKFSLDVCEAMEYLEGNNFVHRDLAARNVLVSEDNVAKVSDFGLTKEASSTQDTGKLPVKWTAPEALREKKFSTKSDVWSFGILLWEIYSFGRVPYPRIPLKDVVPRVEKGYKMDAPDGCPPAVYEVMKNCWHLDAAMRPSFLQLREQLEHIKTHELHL

DAPK1 = DAPK1 (Homo sapiens, UniProt P53355)
Chain of DAPK1 (P53355 whole entry): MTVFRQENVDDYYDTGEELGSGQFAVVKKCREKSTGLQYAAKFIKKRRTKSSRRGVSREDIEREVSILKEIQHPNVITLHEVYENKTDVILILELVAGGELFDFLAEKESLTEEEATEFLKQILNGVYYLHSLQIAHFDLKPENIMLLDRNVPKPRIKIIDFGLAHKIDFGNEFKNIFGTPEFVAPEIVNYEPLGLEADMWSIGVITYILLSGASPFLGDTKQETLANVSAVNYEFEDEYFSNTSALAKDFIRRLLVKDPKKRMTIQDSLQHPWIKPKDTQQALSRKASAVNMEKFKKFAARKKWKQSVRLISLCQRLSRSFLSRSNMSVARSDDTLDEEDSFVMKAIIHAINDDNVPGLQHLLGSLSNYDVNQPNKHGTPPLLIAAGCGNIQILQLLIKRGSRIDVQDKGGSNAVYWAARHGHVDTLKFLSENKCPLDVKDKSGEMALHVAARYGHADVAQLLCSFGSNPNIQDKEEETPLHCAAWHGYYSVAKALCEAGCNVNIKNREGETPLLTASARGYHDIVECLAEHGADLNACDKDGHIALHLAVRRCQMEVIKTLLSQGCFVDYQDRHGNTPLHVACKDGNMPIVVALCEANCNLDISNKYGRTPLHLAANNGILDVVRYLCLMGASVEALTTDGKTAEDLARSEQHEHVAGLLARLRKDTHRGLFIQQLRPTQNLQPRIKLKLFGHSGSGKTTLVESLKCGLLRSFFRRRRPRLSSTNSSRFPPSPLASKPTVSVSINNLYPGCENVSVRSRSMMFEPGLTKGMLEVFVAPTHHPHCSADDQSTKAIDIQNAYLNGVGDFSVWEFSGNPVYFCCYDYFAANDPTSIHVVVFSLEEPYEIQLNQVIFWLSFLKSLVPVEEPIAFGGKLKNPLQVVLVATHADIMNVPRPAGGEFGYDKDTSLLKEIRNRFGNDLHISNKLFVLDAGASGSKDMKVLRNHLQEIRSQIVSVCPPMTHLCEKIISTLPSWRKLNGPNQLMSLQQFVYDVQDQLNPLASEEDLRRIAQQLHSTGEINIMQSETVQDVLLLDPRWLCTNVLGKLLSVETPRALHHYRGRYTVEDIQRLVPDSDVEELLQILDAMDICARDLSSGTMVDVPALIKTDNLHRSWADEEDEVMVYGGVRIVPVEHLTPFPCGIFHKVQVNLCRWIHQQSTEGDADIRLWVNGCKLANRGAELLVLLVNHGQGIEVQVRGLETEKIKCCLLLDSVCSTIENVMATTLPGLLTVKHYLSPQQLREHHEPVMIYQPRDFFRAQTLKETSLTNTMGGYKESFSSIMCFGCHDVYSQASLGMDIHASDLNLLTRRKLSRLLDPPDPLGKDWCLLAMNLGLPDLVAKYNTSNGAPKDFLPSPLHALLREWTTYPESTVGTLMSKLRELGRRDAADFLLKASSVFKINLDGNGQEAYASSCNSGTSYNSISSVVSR

EPHB6 = EPHB6 (Homo sapiens, UniProt O15197)
HIPK4 = HIPK4 (Homo sapiens, UniProt Q8NE63)
INSR = INSR (Homo sapiens, UniProt P06213)
IRAK1 = IRAK1 (Homo sapiens, UniProt P51617)
MAP3K2 = MAP3K2 (Homo sapiens, UniProt Q9Y2U5)
MAP4K4 = MAP4K4 (Homo sapiens, UniProt O95819)
MAPK12 = MAPK12 (Homo sapiens, UniProt P53778)
MAPK3 = MAPK3 (Homo sapiens, UniProt P27361)
MST1R = MST1R (Homo sapiens, UniProt Q04912)
NEK4 = NEK4 (Homo sapiens, UniProt P51957)
NTRK3 = NTRK3 (Homo sapiens, UniProt Q16288)
Chain of NTRK3 (Q16288 whole entry): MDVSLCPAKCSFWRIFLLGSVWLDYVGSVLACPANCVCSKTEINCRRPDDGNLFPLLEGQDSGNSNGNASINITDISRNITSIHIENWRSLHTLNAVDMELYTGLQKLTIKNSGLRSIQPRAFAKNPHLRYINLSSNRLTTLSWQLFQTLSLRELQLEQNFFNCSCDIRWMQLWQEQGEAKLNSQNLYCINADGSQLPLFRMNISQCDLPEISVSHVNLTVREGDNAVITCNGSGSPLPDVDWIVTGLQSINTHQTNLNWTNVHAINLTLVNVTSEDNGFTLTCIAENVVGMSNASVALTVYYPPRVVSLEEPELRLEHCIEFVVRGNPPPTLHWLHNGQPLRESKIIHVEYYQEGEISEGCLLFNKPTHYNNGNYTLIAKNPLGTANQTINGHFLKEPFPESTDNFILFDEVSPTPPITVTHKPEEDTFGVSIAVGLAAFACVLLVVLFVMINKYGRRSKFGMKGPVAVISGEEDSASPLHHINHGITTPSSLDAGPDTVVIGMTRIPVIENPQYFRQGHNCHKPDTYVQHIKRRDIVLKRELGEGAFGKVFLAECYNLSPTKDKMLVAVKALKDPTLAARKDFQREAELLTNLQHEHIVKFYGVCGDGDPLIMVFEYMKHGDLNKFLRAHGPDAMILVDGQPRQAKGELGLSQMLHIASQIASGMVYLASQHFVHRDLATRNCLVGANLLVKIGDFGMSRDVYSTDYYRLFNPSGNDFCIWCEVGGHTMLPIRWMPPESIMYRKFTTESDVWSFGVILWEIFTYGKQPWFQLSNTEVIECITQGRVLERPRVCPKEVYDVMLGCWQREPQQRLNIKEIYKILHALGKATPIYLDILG

PIKFYVE = PIKFYVE (Homo sapiens, UniProt Q9Y2I7)
Chain of PIKFYVE (Q9Y2I7 whole entry): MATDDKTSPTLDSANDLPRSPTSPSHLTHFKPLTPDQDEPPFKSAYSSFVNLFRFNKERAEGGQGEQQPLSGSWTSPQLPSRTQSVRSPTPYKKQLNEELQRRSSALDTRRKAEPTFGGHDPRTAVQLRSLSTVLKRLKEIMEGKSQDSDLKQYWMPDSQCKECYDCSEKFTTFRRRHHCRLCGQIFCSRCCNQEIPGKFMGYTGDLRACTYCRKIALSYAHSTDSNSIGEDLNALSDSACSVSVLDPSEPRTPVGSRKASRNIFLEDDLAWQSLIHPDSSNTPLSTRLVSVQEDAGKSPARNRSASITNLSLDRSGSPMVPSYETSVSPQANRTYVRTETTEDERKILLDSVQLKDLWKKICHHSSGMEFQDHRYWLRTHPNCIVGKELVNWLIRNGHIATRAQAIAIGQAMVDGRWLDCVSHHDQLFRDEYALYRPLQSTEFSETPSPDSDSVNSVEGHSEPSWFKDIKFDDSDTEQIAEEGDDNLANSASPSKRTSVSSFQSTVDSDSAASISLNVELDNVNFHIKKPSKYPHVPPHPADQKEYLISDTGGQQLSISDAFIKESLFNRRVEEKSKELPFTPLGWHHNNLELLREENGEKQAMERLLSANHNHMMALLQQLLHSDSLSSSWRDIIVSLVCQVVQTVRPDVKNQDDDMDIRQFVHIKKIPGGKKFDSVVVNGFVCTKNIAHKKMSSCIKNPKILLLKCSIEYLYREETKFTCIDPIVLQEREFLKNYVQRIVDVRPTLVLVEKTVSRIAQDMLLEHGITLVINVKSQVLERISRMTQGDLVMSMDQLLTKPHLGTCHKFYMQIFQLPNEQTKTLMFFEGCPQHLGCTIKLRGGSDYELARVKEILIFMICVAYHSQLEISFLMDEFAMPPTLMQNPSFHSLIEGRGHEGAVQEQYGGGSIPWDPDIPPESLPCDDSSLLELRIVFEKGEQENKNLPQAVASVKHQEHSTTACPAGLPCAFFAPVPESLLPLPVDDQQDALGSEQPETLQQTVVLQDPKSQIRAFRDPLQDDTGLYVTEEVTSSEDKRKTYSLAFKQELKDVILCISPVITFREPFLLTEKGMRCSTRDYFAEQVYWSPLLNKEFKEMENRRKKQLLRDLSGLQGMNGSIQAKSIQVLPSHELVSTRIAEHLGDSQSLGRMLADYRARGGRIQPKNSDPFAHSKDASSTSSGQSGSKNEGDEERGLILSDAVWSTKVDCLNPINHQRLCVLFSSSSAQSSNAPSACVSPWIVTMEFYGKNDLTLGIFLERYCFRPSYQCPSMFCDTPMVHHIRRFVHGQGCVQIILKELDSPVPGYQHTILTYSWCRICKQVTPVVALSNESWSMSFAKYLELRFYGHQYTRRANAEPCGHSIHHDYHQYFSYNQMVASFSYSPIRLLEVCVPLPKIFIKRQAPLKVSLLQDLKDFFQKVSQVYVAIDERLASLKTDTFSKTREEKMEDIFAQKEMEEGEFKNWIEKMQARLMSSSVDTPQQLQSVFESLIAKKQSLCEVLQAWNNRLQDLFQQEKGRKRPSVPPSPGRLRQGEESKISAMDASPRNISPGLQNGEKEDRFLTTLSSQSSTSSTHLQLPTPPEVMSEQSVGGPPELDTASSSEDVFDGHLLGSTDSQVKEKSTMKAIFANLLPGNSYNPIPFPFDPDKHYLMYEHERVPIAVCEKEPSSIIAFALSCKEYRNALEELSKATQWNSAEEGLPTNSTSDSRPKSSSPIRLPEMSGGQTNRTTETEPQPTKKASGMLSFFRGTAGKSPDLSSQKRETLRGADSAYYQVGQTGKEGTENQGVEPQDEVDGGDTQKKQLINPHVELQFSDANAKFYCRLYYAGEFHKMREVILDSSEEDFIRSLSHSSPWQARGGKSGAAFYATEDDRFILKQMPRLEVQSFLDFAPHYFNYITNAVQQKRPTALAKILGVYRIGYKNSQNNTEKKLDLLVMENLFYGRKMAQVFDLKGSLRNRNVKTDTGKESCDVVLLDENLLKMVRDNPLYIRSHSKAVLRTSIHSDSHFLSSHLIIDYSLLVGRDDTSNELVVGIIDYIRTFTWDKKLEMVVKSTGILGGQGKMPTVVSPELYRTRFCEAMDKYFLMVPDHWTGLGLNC

PIP4K2B = PIP4K2B (Homo sapiens, UniProt P78356)
RPS6KB1 = RPS6KB1 (Homo sapiens, UniProt P23443)
SIK2 = SIK2 (Homo sapiens, UniProt Q9H0K1)

Oc1ccc(C2=Cc3ccc(O)cc3OC2)cc1 [compound 1, idronoxil]
remaining binding at 10 µM (ABL1-nonphosphorylated): 32% | remaining binding at 10 µM (AKT1): 75% | remaining binding at 10 µM (ALK): 68% | remaining binding at 10 µM (CSK): 100% | remaining binding at 10 µM (DAPK1): 53% | remaining binding at 10 µM (EPHB6): 53% | remaining binding at 10 µM (HIPK4): 75% | remaining binding at 10 µM (INSR): 71% | remaining binding at 10 µM (IRAK1): 80% | remaining binding at 10 µM (MAP3K2): 83% | remaining binding at 10 µM (MAP4K4): 47% | remaining binding at 10 µM (MAPK12): 100% | remaining binding at 10 µM (MAPK3): 94% | remaining binding at 10 µM (MST1R): 100% | remaining binding at 10 µM (NEK4): 98% | remaining binding at 10 µM (NTRK3): 97% | remaining binding at 10 µM (PIKFYVE): 91% | remaining binding at 10 µM (PIP4K2B): 100% | remaining binding at 10 µM (RPS6KB1): 84% | remaining binding at 10 µM (SIK2): 87%
